In patent US6623728B2, “Cosmetic skin care compositions and containing gum mastic” (Unilever Home & Personal Care USA Division of Conopco, Inc., priority 2000, dated 2003):

Tests used:
[1] = tested on: human sebocytes; assay: Inhibition of sebocyte lipogenesis (14C-acetate incorporation); assay type: cell-based; settings: 0.00035%; 14C-acetate label in sebocytes, 20 h + 4 h incubation
Protocol: Secondary cultures of human sebocytes obtained from an adult […] were grown in 48-well tissue culture plates (Costar Corp.; Cambridge, Mass.) until confluent. Sebocyte growth medium consisted of Clonetics Keratinocyte Basal Medium (KBM) supplemented with 14 μg/ml bovine pituitary extract, 0.4 μg/ml hydrocortisone, 5 μg/ml insulin, 10 ng/ml epidermal growth factor, 1.2×10^−10 M cholera toxin, 100 units/ml penicillin, and 100 μg/ml streptomycin. All cultures were incubated at 37° C. in the presence of 7.5% CO2. Medium was changed three times per week.
On the day of experimentation, the growth medium was removed and the sebocytes washed three times with sterile Dulbecco's Modified Eagle Medium (DMEM; phenol red free). Fresh DMEM was added to each sample (triplicates) with 5 μL of gum mastic solubilized in ethanol. Controls consisted of addition of ethanol alone to phenol red. Each plate was returned to the incubator for 20 hours followed by the addition of ^14C-acetate buffer (5 mM final concentration, 56 mCi/mmol specific activity). […] Radioactive label remaining in the sebocytes was harvested and counted using a Beckman scintillation counter. […]
Controls consisted of ethanol alone and phenol red, which has estrogen-like activity. Statistical significance was calculated using the student's T-test.

[2] = tested on: procollagen I; assay: Procollagen I production by fibroblasts (slot blot); assay type: cell-based, human; settings: positive control, head says (0.01%)
Protocol: This example measured production of procollagen I by fibroblasts in response to treatment with gum mastic in solvent solutions, as well as control solutions.
Gum mastic solubilized in ethanol solvent (“gum mastic”), and obtained from Sigma were tested.
Neonatal human dermal fibroblasts were purchased from Clonetics Corp., San Diego, Calif. All materials for cell culture were purchased from Life Technologies, NY and used in passages 5-10. Cells were seeded at a density of approximately 7,500/well in the inner 48 wells of a 96-well plate in a medium containing DMEM (Dulbecco's Modified Eagle's Medium), high-glucose supplemented with 2 mM L-glutamine, 10% fetal bovine serum, and antibiotic and antimycotic solutions). Cells were then grown to confluence for 2 days. At confluence, the medium was removed and cells were washed with serum-free DMEM, and each well dosed with 200 μl of a solution of gum mastic in serum-free DMEM. Each dosing was replicated in the total of six wells. […]
The membrane was stained until color developed and the reaction stopped with 2 washes for 10 minutes in tap water. […] Blot was scanned on Bio-Rad GS-700 Image Analysis densitometer and volume (OD*mm^2) of color/slot determined using molecular analysis software. Fold increase was calculated as a ratio of densitometer reading for cells treated with a gum mastic concentration over control.

[3] = tested on: glycosaminoglycan synthesis; assay: Glycosaminoglycan synthesis; assay type: cell-based; settings: positive control, concentration not given

Row | Compound | % Reduction [1] [%] | Fold increase over control [2] [fold] | Average OD Reading ([2]; densitometer volume OD*mm^2, control 5400.5) | Fold increase over control [3] [fold] | Average OD Reading ([3]; control 4531.8)
1 | O=S1(=O)OC(c2ccc(O)cc2)(c2ccc(O)cc2)c2ccccc21 [Phenol Red] | 29.1 |  |  |  | 
2 | TGF-b |  | 1.4 | 7499.8 | 1.4 | 6382.3
